From patent US9018196B2, “Development of a new formulation overcoming thymus atrophy with concomitantly enhancement of anti-inflammatory effect of dexamethasone” (Macau University of Science and Technology, priority 2013, dated 2015)

How the values were obtained:
Assay type in all cases: in vivo, Balb/c mice
thymocytes = assay: Flow cytometry assay for detection of thymocyte apoptosis (Annexin V-FITC and PI); details: DNFB-induced DTH mice, model group about 72%
Description: The animal model was conducted as mentioned in section 1.1 of Example 1 above. Thymocytes were washed by cold PBS and binding buffer, resuspended in binding buffer including Annexin V-FITC, and then incubated at room temperature for 10 minutes. After adding the binding buffer containing PI, the cells were incubated on ice for another 15 minutes. The data was analyzed by flow cytometry within one hour.

CD4+CD8+ thymocytes = assay: Flow cytometry assay for detection of CD4 and CD8 expression in thymocytes; details: DNFB-induced DTH mice, topical application; control and model groups about 76%
Description: (§1) Male Balb/c mice, weighing 19-21 g were sensitized through topical application of 20 μl of 0.5% (v/v) DNFB in acetone onto the shaved abdomen on days 1 and 2. Challenge was then preformed on day 6 by applying DNFB (20 μl, 0.5%, v/v) on the left inner and outer ear surfaces of mice. DMY (at dosage of 1 mg/ear) and/or DEX (1.5625 μg/ml) dissolved in acetone was topically applied (20 μl) to the ears at 2nd, 24th, 48th, 72nd, hour after the challenge. The edema was calculated as the difference between the thickness of left and right ear at the 24th, 48th and 72nd h after challenge. […] The control 100 group was treated only with DNFB or solvent solution.
The animal model was conducted as mentioned in section 1.1 of Example 1 above, in which after the mice were sacrificed by cervical dislocation, the thymocytes were isolated and washed by PBS. The cells were stained by 20 μL CD4 with CD8 for 30 min avoiding from light, followed by 4% PFA to fix the cells, and flow cytometery was then conducted.

[1] = test system: signal-joint TRECs in thymocytes; assay: Quantification of signal-joint TRECs; details: compared with the DEX-treated animals
Description: as §1
DNA was isolated from purified thymic T cells using DNA purification kit. PCR was performed using mδRec- and ψJα-specific primers and an mδRec-ψJα fluorescent probe as described previously. The standard curves for murine TRECs were generated using a mδRec-ψJα TREC PCR product cloned into a pc DNA3.1 plasmid from Prof. Gregory D. Sempowski (Duke Human Vaccine Institute, Duke University Medical Center, Durham, N.C., USA.). The assay was performed on slides according to previous study.

[2] = test system: mononuclear cell infiltrate in the ear; assay: Histological examination of ear inflammation; details: DNFB-treated mice, ear histology
Description: as §1
(§2) The animal model was conducted as mentioned in section 1.1 of Example 1 above. […] Antigens were retrieved by steaming samples in DAKO target retrieval buffer (DAKO) for 20 minutes. After the nonspecific binding sites were blocked, the sections were incubated overnight at 4° C. with CD4 or CD8 antibodies (Phoenix Pharmaceuticals).
(§3) Sections were stained with 3,3′-diaminobenzidine substrate and counterstained with Meyer hematoxylin and eosin.

thymic architecture = assay: Histological examination of thymus; details: compared with DEX-treated animals
Description: as §1

[3] = test system: CD4+ and CD8+ cells in the ears; assay: Immunohistochemical staining of CD4 and CD8 in ear sections; details: immunohistochemical analysis; in comparison with the Model Group
Description: as §1, §2, §3

[4] = test system: ear edema of DTH mice induced by DNFB; assay: Delay-type hypersensitivity test (DTHT) in mice: ear edema; details: topical, DMY 1 mg/ear and/or DEX 1.5625 μg/ml, 24th, 48th, 72nd h after challenge, vs Model Group
Description: as §1
FIGS. 1a and 1b show the effects of DEX, DMY and the combinational application of DMY and DEX (illustrated as the DMY+DEX group) on treatment of ear edema of DTH mice induced by DNFB. Edema as expressed as the increase in ear thickness (ΔT in micrometer±S.E.M.) in the DNFB experiments. Percentages of inhibition (% I) for each measurement were calculated from values for the DEX, DMY and DMY+ DEX groups with respect to those for the Model Group. Statistically significant differences with respect to the Model Group are expressed as *P<0.05 and **P<0.01 (Dunnett's t test).
The animal model was conducted as mentioned in section 1.1 of Example 1 above. […]

## C[C@@H]1C[C@H]2[C@@H]3CCC4=CC(=O)C=C[C@]4(C)[C@@]3(F)[C@@H](O)C[C@]2(C)[C@@]1(O)C(=O)CO [DEX, dexamethasone]
thymocytes
  ratio of thymocyte apoptosis: 77.9%
CD4+CD8+ thymocytes
  CD4+CD8+ T cell population in thymus: 54.7%

## O=C1c2c(O)cc(O)cc2O[C@H](c2cc(O)c(O)c(O)c2)[C@H]1O [DMY, dihydromyricetin]
[1]
  levels of signal-joint TRECs in thymocytes: could increase the levels of signal-joint TRECs
[2]
  number of inflammatory cells in the ear: could be significantly reduced
Thymic architecture
  thymic architecture (corticomedullary junctions): significantly improve the thymic architecture
[3]
  accounts of CD4+ and CD8+ cells in the treated ears: shown to reduce the accounts of CD4+ and CD8+ cells
[4]
  effect on ear edema (increase in ear thickness, percentages of inhibition): could inhibit ear edema
